Source: patent US5646155A, “Drugs to prevent recurrent herpes virus infections” (priority 1994, dated 1997)
In brackets after ≈: the same amount, converted by molar mass. Read-outs that look alike come from different tables or passages of the source.

Key:
[1] = target: Varicella Zoster Virus (VZV) Thymidine Kinase (TK) (Varicella-zoster virus, UniProt P09250); test: VZV thymidine kinase inhibition (Table 7); format: biochemical
HSV2 TK = HSV2 TK (Human herpesvirus 2, UniProt P04407); test: HSV2 thymidine kinase inhibition (Table 1); format: biochemical
Excerpt: kinases (TK) from Herpes simplex virus types 1 and 2 (HSV1, HSV2).

[2] = Solubility in water (Table 1); format: physicochemical; settings: read-out: Sol. in H2O
physchem = settings: octanol/water
HSV1 TK = HSV1 TK (Human herpesvirus 1, UniProt P0DTH5); test: biochemical
[3] = Pharmacokinetics in mice following intraperitoneal administration (Table 3); format: in vivo; settings: mouse, ip
Method: Pharmacokinetic parameters of inhibitors in mice
following intraperitoneal (100 mg/Kg) administration (i.p.)
^1 Plasma concentrations were measured by analytical HPLC on a C8
reverse phase column as described in the experimental Section.

HSV1, strain McKrae = test: Reactivation in vitro of latent HSV1 strain McKrae from explanted mouse ganglia (Table 6); format: cell-based, mice; settings: 15 μM drugs, 7 days, supernatant added to Vero cells
Method: Screening of compounds is carried out using an in vitro explant cocultivation model in mice. Ocular HSV1 infections are initiated and, after subsidence of the infectious phase (several days), latent HSV1 infection becomes established in the trigeminal ganglia of the mice. The ganglia are then surgically removed and minced or homogenized, and this explanted tissue is cocultivated on mammalian cells, typically Vero cells. The frequency of reactivation is determined as the percentage of ganglia that produce HSV1 virus (as measured by viral cytopathic effect (CPE)) in the cultures. Effective drugs present during the cocultivation period will decrease the frequency of reactivation relative to untreated cocultures. See Leib et al. (J. Virol. 63:759-768 (1989)), incorporated herein by reference, and statements herein for further experimental details.
Latent ocular HSV1 infections were established in mice. Trigeminal gangli
were removed and treated as follows.
^2 Ganglia were minced and incubated for 7 days in the presence of 15
μM drugs; after homogenization, supernatant was added to Vero cells in
culture (courtesy of Dr. Y. J. Gordon, Eye and Ear Institute, Pittsburgh)

[4] = Absorption and distribution in mice (Table 2); format: in vivo; settings: for Vd/F: i.p.; for half-life: plasma
Excerpt: Absorption and distribution of 9-substituted-N^2 -phenylquanines in mice.
*i.v., intravenous; i.p., intraperitoneal.

HSV1 [5] = test: Hyperthermia-induced HSV1 reactivation in mice, infectious virus (Table 4); format: in vivo; settings: for Infectious Virus, Ganglion / Infectious Virus, Ocular Surface: 200 mg/kg
Method: (§1) Table 5 provides quantitation of viral DNA using quantitative, competitive polymerase chain reaction methods.
(§2) .dagger-dbl.HSV1 latent mice were treated with HBPG (200 mg/kg), stressed
(§3) by immersion in 43° C. water for 10 min, and sacrificed 24 hours
ΔGanglion homogenates and ocular surface swabs were cocultured on
indicator cells and the appearance of cytopathic effect recorded.

HSV1 [6] = test: Hyperthermia-induced viral DNA synthesis in HSV1 latent mice, QCPCR (Table 5); format: in vivo; settings: 200 mg/kg, stressed (43° C. water 10 min), ganglionic DNA
Method: as §1, §2, §3
ΔGanglionic DNA was amplified in quantitative, competitive
polymerase chain reaction (QCPCR) and the copy number of the viral gene
present determined at the equivalence point.

HSV1, strain KOS = settings: 150 μM drugs, cocultivated on Vero cells (from Leib et al.); cited from earlier work
[7] = mouse, in vivo, ip, mice, in 90% DMSO/H2O, read-out: Volume of Distribution
[8] = mouse, ip, mice, in 90% DMSO/H2O
[9] = stressed (43° C. water 10 min), sacrificed 24 hours later
[10] = mouse, ip, pH 11.3, mice, in saline, pH 11.3

Sequence of Varicella Zoster Virus (VZV) Thymidine Kinase (TK) (P09250 whole entry, looked up): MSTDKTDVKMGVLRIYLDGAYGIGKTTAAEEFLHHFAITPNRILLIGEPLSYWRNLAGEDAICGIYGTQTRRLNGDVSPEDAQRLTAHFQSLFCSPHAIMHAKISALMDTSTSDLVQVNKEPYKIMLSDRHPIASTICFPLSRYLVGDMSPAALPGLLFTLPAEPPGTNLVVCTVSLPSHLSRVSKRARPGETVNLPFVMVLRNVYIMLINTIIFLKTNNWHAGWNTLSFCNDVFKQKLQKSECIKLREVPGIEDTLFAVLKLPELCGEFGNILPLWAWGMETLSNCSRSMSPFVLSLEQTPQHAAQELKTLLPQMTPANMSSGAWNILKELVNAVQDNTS
Sequence of HSV2 TK (P04407 whole entry): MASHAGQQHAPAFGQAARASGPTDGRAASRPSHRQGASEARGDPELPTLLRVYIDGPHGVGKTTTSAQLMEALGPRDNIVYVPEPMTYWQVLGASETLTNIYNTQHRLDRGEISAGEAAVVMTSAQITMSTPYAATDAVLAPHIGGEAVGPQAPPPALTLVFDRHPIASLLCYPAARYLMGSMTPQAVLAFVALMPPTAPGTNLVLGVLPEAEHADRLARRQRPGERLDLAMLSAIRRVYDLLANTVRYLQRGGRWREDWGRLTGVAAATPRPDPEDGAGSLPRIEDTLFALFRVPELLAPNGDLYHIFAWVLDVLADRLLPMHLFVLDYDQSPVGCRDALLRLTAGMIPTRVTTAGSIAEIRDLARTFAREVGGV
Sequence of HSV1 TK (P0DTH5 whole entry): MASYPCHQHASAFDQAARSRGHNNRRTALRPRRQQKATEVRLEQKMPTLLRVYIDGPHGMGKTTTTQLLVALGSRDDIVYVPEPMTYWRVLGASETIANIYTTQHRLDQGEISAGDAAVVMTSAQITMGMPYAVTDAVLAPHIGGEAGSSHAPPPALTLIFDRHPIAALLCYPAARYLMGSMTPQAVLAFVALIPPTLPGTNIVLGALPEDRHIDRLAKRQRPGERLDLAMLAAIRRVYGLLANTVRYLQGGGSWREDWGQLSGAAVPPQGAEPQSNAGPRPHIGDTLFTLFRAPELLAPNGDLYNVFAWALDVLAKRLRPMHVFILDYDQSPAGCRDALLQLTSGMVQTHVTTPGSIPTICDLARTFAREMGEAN

CCCCCCCCCCCCNc1nc2nc[nH]c2c(=O)[nH]1 [C12 G, N^2 -(n-Dodecyl)guanine]
Ki [1]: 3200 nM
Mode of inhibition of VZV TK [1]: Competitive inhibitor

CCCCCCCCCCCCCCNc1nc2[nH]cnc2c(=O)[nH]1 [C14 G]
IC50 [1]: 69000 nM

O=c1[nH]c(Nc2ccccc2)nc2c1ncn2CC(O)CSCCO (stereo not shown) [CH2 CHCH2SCH2 CH2 OH]
IC50 (HSV2 TK; read-out: IC50 HSV2 TK): 1560 nM
solubility [2]: 29.8 µM (≈ 10.8 µg/mL)
logP (physchem): 0.826

C=CCn1cnc2c(=O)[nH]c(Nc3ccccc3)nc21 [CH2 CHCH2]
solubility [2]: 8.1 µM (≈ 2.17 µg/mL)
logP (physchem): 1.75

O=c1[nH]c(Nc2ccccc2)nc2c1ncn2COC(CO)CO [CH2OCH(CH2 OH)2]
IC50 (HSV1 TK): 500 nM
solubility [2]: 113 µM (≈ 37.4 µg/mL)
logP (physchem): 0

O=c1[nH]c(Nc2ccccc2)nc2c1ncn2CC(O)CO (stereo not shown) [DHP-PG, 9-(2,3-Dihydroxypropyl)-N^2-phenylguanine]
solubility [2]: 171 µM (≈ 51.4 µg/mL)
C0 ([3]; in vivo, 100 mg/kg): 115 µM
half-life ([3]; in vivo, 100 mg/kg): 17.3 min
# ganglia reactivated/# explanted, HSV1 strain McKrae (HSV1, strain McKrae): 4/4
logP (physchem): 0.398

O=c1[nH]c(Nc2ccccc2)nc2c1ncn2CCCCO [HB-PG, 9-(4-Hydroxybutyl)-N^2-phenylguanine]
IC50 (HSV2 TK): 2200 nM
solubility [2]: 56 µM (≈ 16.8 µg/mL)
Vd/F [4, 7]: 12.7 L/kg
half-life [4, 8]: 85 min
half-life ([4]; mouse, ip, mice, in corn oil): 55 min
C0 ([3]; in vivo, 100 mg/kg): 30.5 µM
Infectious Virus, Ganglion (HSV1 [5]; not stressed): 0/8
Infectious Virus, Ocular Surface (HSV1 [5]; not stressed): 0/9
Infectious Virus, Ganglion (HSV1 [5]; [9]): 7/18
Infectious Virus, Ocular Surface (HSV1 [5]; [9]): 3/20
P, difference in frequency of virus in samples from HBPG-treated compared to placebo-treated animals (HSV1 [5]; vs placebo): < 0.05
Viral DNA (HSV1 [6]): < 1 × 10^2 copies
# ganglia reactivated/# explanted, HSV1 strain McKrae (HSV1, strain McKrae): 2/4
logP (physchem): 1.26

O=c1[nH]c(Nc2ccccc2)nc2c1ncn2CCO [HE-PG, 9-(2-Hydroxyethyl)-N^2-phenylguanine]
solubility [2]: 156 µM (≈ 42.4 µg/mL)
Plasma half-life ([4]; mice, i.v., in 90% DMSO/H2O): 15 min
Volume of Distribution ([4]; mice, i.v., in 90% DMSO/H2O): 3.3 L/kg
Vd/F [4, 7]: 4.3 L/kg
half-life [4, 8]: 19 min
C0 ([3]; in vivo, 100 mg/kg): 100 µM
half-life ([3]; plasma, mice, i.p. 100 mg/Kg, 90% DMSO, read-out: Plasma t1/2): 21 min
# ganglia reactivated/# explanted, HSV1 strain McKrae (HSV1, strain McKrae): 4/4
logP (physchem): 0.833

Oc1[nH]c(Nc2ccccc2)nc2ncnc1-2 [H]
IC50 (HSV2 TK): 1600 nM

O=C(O)Cn1cnc2c(=O)[nH]c(Nc3ccccc3)nc21 [PG-AA, (N^2 -Phenylguan-9-yl)acetic acid]
Vd/F [4, 7]: 1.7 L/kg
half-life [4, 8]: 33 min
C0 ([3]; in vivo, 100 mg/kg): 246 µM
half-life ([3]; in vivo, 100 mg/kg): 26.6 min
# ganglia reactivated/# explanted, HSV1 strain McKrae (HSV1, strain McKrae): 4/4

O=c1[nH]c(Nc2ccccc2)nc2c1ncn2[C@H]1C[C@H](O)[C@@H](CO)O1 [PhdG, 9-(2-Deoxyribofuranosyl)-N^2-phenylguanine]
Vd ([4]; mouse, in vivo, iv, mice, i.v., in saline, pH 11.3, read-out: Volume of Distribution): 0.4 L/kg
half-life [4, 10]: 60 min
half-life ([4]; mouse, iv, pH 11.3, mice, in saline, pH 11.3): 7.5 min
C0 ([3]; in vivo, 100 mg/kg, pH 11.4): 11.7 µM
half-life ([3]; in vivo, 100 mg/kg, pH 11.4): 60 min
# ganglia reactivated/# explanted, HSV1 strain McKrae (HSV1, strain McKrae): 1/4
# ganglia reactivated/# explanted, HSV1 strain KOS (HSV1, strain KOS): 3/20

CCCNc1nc2c(ncn2[C@H]2C[C@H](O)[C@@H](CO)O2)c(=O)[nH]1 [PrdG, 9-(2-deoxyribofuranosyl)-N^2-n-propylguanine]
IC50 [1]: 20000 nM
Ki [1]: 13600 nM
Mode of inhibition of VZV TK [1]: Competitive inhibitor

O=c1[nH]c(Nc2ccccc2)nc2c1ncn2[C@H]1C[C@H](O)[C@@H](CO)O1 [drawing 15]
IC50 (HSV2 TK): 700 nM
solubility [2]: 81 µM (≈ 27.8 µg/mL)
logP (physchem): 0.398

O=c1[nH]c(Nc2cccc(C(F)(F)F)c2)nc2nc[nH]c12 [m-CF3 PG, N^2-(m-[trifluoromethyl]phenyl)guanine, reference compound]
Plasma half-life ([4]; mice, i.v., in saline, pH 11.3): 25 min
Volume of Distribution ([4]; mice, i.v., in saline, pH 11.3): 3.0 L/kg
half-life [4, 10]: 140 min
C0 ([3]; in vivo, 100 mg/kg, pH 11.4): 10.2 µM
# ganglia reactivated/# explanted, HSV1 strain McKrae (HSV1, strain McKrae): 0/4
# ganglia reactivated/# explanted, HSV1 strain KOS (HSV1, strain KOS): 1/20
